# In PMC10569036:
# Assay: shake flask on a mixture of 185; loss from the water phase only; LC-Orbitrap peak areas
# Details: room
SMILES,"log partition 1-octanol / HPLC water, unbuffered, traces of methanol / DMSO [log10]","log partition butyl acetate / HPLC water, unbuffered, traces of methanol / DMSO [log10]","log partition chloroform / HPLC water, unbuffered, traces of methanol / DMSO [log10]","log partition cyclohexane / HPLC water, unbuffered, traces of methanol / DMSO [log10]","log partition dichloromethane / HPLC water, unbuffered, traces of methanol / DMSO [log10]","log partition n-hexane / HPLC water, unbuffered, traces of methanol / DMSO [log10]","log partition n-octane / HPLC water, unbuffered, traces of methanol / DMSO [log10]","log partition n-undecane / HPLC water, unbuffered, traces of methanol / DMSO [log10]","log partition oleylalcohol / HPLC water, unbuffered, traces of methanol / DMSO [log10]","log partition toluene / HPLC water, unbuffered, traces of methanol / DMSO [log10]"
CCOC(=O)CC(=O)c1ccccc1,-0.2282,-0.1902,0.1944,-1.116,-0.2025,-1.048,-1.147,-0.8216,-0.4257,-0.3454
CC(C)c1cccc(O)c1,-0.1403,-0.382,0.06183,-0.6197,-0.09834,-0.5466,-0.6932,-0.7318,-0.144,-0.5154
O=C1OC(=O)C2C3C=CC(C3)C12 (stereo not drawn),-0.9913,-0.2228,0.8465,-0.9247,1.732,-0.7252,-1.742,-1.577,0.1202,0.5941
Cc1cc(O)cc(C)c1Cl,0.7604,0.7531,0.7311,0.5528,0.8657,0.611,0.5049,0.3954,0.7156,0.8203
CN1C(=O)CCS(=O)(=O)C1c1ccc(Cl)cc1 (stereo not drawn),,,3.591,,5.525,,,,,4.586
Cc1cc(SCc2sc(-c3ccc(C(F)(F)F)c(F)c3)nc2C)ccc1OCC(=O)O,-0.1342,0.8792,0.4425,-1.06,0.6672,-1.28,-0.8266,-1.326,0.4514,-0.01784
Cc1ccc(N)c(S(=O)(=O)O)c1,0.1434,0.1277,1.369,-0.01168,1.153,0.1369,-0.1323,-0.3053,-0.05327,0.5377
CCCCNC(=S)NCCCC,1.103,0.744,0.6525,-0.1972,0.6427,-0.2041,0.07134,0.1833,0.9527,0.4176
CC(=O)c1ccc2ccccc2c1,0.3821,-0.9282,-0.4983,-0.222,-0.6955,0.5227,0.6442,0.226,-0.06645,-0.371
CC(C)(C#N)Nc1nc(Cl)nc(NC2CC2)n1,2.353,1.721,2.761,-0.1053,2.268,-0.13,0.2329,-0.4376,1.837,1.234
C=CC(=O)OCC1CC2CC1C1CCC(COC(=O)C=C)C21 (stereo not drawn),0.2948,-0.12,0.01457,-0.1351,0.05615,-0.1023,-0.1158,0.0297,0.1091,0.1587
O=C(O)CCN(C1(C(=O)NO)CCCC1)S(=O)(=O)c1ccc(Oc2ccc(F)cc2)cc1,-0.5893,1.182,0.09364,-1.331,0.4348,-1.472,-1.686,0.1413,0.5204,-0.3191
CC(=O)Oc1ccc(C(C)=O)cc1,0.8444,0.4506,0.8919,-0.4431,0.1616,-0.7051,-0.2813,-0.7594,0.2271,-0.3508
